Source: US6469013B2, “Therapeutic compounds” (Parker Hughes Institute, priority 1998, dated 2002)
Like-named read-outs stand apart in the source and are kept apart here.

System: NALM-6 (pre-B ALL)
Experiment: Methylcellulose clonogenic assay
Assay type: cell-based, human
Method: The antileukemic activity of compound 6 against clonogenic tumor cells was examined using a methylcellulose colony assay system (Uckun, F. M., et al., J. Exp. Med. 163: 347-368, 1986; Messinger, Y., et al., Clin Cancer Res. 4: 165-70, 1998). In brief, cells (10^5/ml in RPMI-10% FBS) were treated overnight at 37° C. with compound 6 at varying concentrations. After treatment, cells were washed twice, plated at 10^4 or 10^5 cells/ml in RPMI-10% FMS-0.9% methylcellulose in Petri dishes, and cultured for 7 days at 37° C. in a humidified 5% CO2 incubator. Subsequently, leukemic cell (or tumor cell) colonies were enumerated using an inverted phase-contrast microscope. The percent inhibition of colony formation was calculated using the following formula:
% Inhibition=1−mean number of colonies in test culture×100 mean number of colonies in control culture

COc1cc2ncnc(Nc3ccc(O)cc3)c2cc1OC [WHI-P131, 4-(4′-hydroxyl-phenyl)-amino-6,7-dimethoxyquinazoline]
inhibition at 100 µM (Homo sapiens, NALM-6, 100 μM, 'these leukemia cell lines', read-out: inhibition of in vitro colony formation): > 99% | inhibition at 0.1 µM (Homo sapiens, NALM-6, 0.1 μM): 0% | inhibition at 1 µM (Homo sapiens, NALM-6, 1 μM): 0% | inhibition at 10 µM (Homo sapiens, NALM-6, 10 μM): 33.2% | inhibition at 100 µM (Homo sapiens, NALM-6, 100 μM, read-out: % Inhibition): > 99.9% | EC50 (Homo sapiens, NALM-6 cells, read-out: EC50, inhibition of clonogenic growth): 24.4 µM | Mean No. of Colonies/10^5 Cells (NALM-6, 0.1 μM): 2970 (2756, 3184) | Mean No. of Colonies/10^5 Cells (NALM-6, 1 μM): 3180 (3080, 3136) | Mean No. of Colonies/10^5 Cells (NALM-6, 10 μM): 1932 (1864, 2000) | Mean No. of Colonies/10^5 Cells (NALM-6, 100 μM): 2 (2, 2)
